Assay results taken from patent US20260250290A1 (BRISTOL-MYERS SQUIBB COMPANY, priority 2023, published 2026).
pIC50: −log10 of the molar value. Where a name gives a salt, the structure may show the parent alone.

Target: T1, full length SGK1 (Homo sapiens, UniProt O00141)
T1 construct: 125 μM full length SGK1 (Life Technologies Part #PR7358A); purchased Life Technologies PR7358A
T1 sequence (O00141 1-431): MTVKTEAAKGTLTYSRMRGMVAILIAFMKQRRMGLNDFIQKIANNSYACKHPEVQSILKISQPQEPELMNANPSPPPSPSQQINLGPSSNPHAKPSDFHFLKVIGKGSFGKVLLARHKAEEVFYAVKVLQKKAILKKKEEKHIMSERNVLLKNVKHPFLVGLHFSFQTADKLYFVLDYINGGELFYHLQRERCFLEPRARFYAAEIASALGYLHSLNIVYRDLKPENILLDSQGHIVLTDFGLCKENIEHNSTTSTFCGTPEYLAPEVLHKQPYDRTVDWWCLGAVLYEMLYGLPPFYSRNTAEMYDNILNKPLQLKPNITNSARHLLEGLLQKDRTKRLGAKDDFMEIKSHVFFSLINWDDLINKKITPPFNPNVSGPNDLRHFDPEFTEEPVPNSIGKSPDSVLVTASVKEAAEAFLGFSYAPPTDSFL
Experiment: SGK1 inhibition Assay A (Caliper LabChip electrophoretic separation of fluorescent peptide substrate and phosphorylated product)
Type: biochemical
Conditions: Assay A; 20 μM ATP, 40 min incubation; read-out: SGK1 IC50

| pIC50 | SMILES |
| --- | --- |
| 7.59 | COc1ncccc1C(=O)N[C@@H]1CCCN(c2cc(C3=CCN(C(C)=O)C3)n3ncnc(N)c23)C1 [Example 718, (R)-N-(1-(7-(1-acetyl-2,5-dihydro-1H-pyrrol-3-yl)-4-aminopyrrolo[2,1-f][1,2,4]triazin-5-yl)piperidin-3-yl)-2-methoxynicotinamide] |
| 8.30 | COC(=O)N1CC=C(c2cc(N3CCCC(NC(=O)c4sc(Cl)cc4OC4CCNC(C)(C)C4)C3)c3c(N)ncnn23)C1 (single isomer, unassigned) [Example 629] |
| 8.00 | CC(=O)NCCC(=O)N1CC=C(c2cc(N3CCC[C@@H](NC(=O)c4ccc(Cl)s4)C3)c3c(N)ncnn23)C1 [Example 915, (R)—N-(1-(7-(1-(3-acetamidopropanoyl)-2,5-dihydro-1H-pyrrol-3-yl)-4-aminopyrrolo[2,1-f][1,2,4]triazin-5-yl)piperidin-3-yl)-5-chlorothiophene-2-carboxamide] |
| 6.32 | CC(=O)N1CC=C(c2cc(N3CCC[C@@H](NC(=O)N4CC[C@H](O)C4)C3)c3c(N)ncnn23)C1 [Example 875, (S)-N-((R)-1-(7-(1-acetyl-2,5-dihydro-1H-pyrrol-3-yl)-4-aminopyrrolo[2,1-f][1,2,4]triazin-5-yl)piperidin-3-yl)-3-hydroxypyrrolidine-1-carboxamide] |
| 6.87 | CC(C)N1CCC(c2cc(C(F)F)sc2C(=O)N[C@@H]2CCCN(c3cc(-c4ccc(C#N)nc4)n4ncnc(N)c34)C2)CC1 [Example 397, (R)-N-(1-(4-amino-7-(6-cyanopyridin-3-yl)pyrrolo[2,1-f][1,2,4]triazin-5-yl)piperidin-3-yl)-5-(difluoromethyl)-3-(1-isopropylpiperidin-4-yl)thiophene-2-carboxamide] |
| 6.62 | Nc1ncnn2c(C#Cc3ccncc3)cc(N3CCC[C@@H](NC(=O)c4ccc(Cl)s4)C3)c12 [Example 695, (R)—N-(1-(4-amino-7-(pyridin-4-ylethynyl)pyrrolo[2,1-f][1,2,4]triazin-5-yl)piperidin-3-yl)-5-chlorothiophene-2-carboxamide, TFA salt] |
| 5.89 | CC(=O)N1CC=C(c2cc(N3CCC[C@@H](NC(=O)C4CCC(F)(F)C4)C3)c3c(N)ncnn23)C1 (stereo partly drawn) [Example 712, N-((R)-1-(7-(1-acetyl-2,5-dihydro-1H-pyrrol-3-yl)-4-aminopyrrolo[2,1-f][1,2,4]triazin-5-yl)piperidin-3-yl)-3,3-difluorocyclopentane-1-carboxamide] |
| 9.40 | Nc1ncnn2c(-c3ccc(C=O)cc3)cc(N3CCC[C@@H](NC(=O)c4ccc(Cl)s4)C3)c12 [Example 539] |
| 8.52 | COC(=O)N1CC=C(c2cc(N3CCC[C@@H](NC(=O)c4sc(Cl)cc4OC4CCNC4)C3)c3c(N)ncnn23)C1 (stereo partly drawn) [Example 570, Methyl 3-(4-amino-5-((3R)-3-(5-chloro-3-(pyrrolidin-3-yloxy)thiophene-2-carboxamido)piperidin-1-yl)pyrrolo[2,1-f][1,2,4]triazin-7-yl)-2,5-dihydro-1H-pyrrole-1-carboxylate] |
| 7.89 | Cc1nc(OCCN(C)C)c(C(=O)N[C@@H]2CCCN(c3cc(-c4ccnc(C#N)c4)n4ncnc(N)c34)C2)s1 [Example 356, (R)-N-(1-(4-amino-7-(2-cyanopyridin-4-yl)pyrrolo[2,1-f][1,2,4]triazin-5-yl)piperidin-3-yl)-4-(2-(dimethylamino)ethoxy)-2-methylthiazole-5-carboxamide] |
| 7.74 | CC(C)c1cc(C(=O)N[C@@H]2CCCN(c3cc(C4=CCN(S(C)(=O)=O)C4)n4ncnc(N)c34)C2)on1 [Example 119, (R)—N-(1-(4-amino-7-(1-(methylsulfonyl)-2,5-dihydro-1H-pyrrol-3-yl)pyrrolo[2,1-f][1,2,4]triazin-5-yl)piperidin-3-yl)-3-isopropylisoxazole-5-carboxamide, TFA] |
| 7.60 | N#Cc1ccc(-c2cc(N3CCC[C@@H](NC(=O)c4sc(Cl)cc4OC4CN(CC(F)F)C4)C3)c3c(N)ncnn23)cn1 [Example 383, (R)—N-(1-(4-amino-7-(6-cyanopyridin-3-yl)pyrrolo[2,1-f][1,2,4]triazin-5-yl)piperidin-3-yl)-5-chloro-3-((1-(2,2-difluoroethyl)azetidin-3-yl)oxy)thiophene-2-carboxamide] |
| 7.47 | CC(=O)N1CC=C(c2cc(N3CCC[C@@H](NC(=O)c4csnn4)C3)c3c(N)ncnn23)C1 [Example 449, (R)-N-(1-(7-(1-acetyl-2,5-dihydro-1H-pyrrol-3-yl)-4-aminopyrrolo[2,1-f][1,2,4]triazin-5-yl)piperidin-3-yl)-1,2,3-thiadiazole-4-] |
| 7.89 | CN1CCN(c2cccc(C(=O)N[C@@H]3CCCN(c4cc(-c5ccc(=O)n(C)c5)n5ncnc(N)c45)C3)n2)CC1 [Example 797, (R)-N-(1-(4-amino-7-(1-methyl-6-oxo-1,6-dihydropyridin-3-yl)pyrrolo[2,1-f][1,2,4]triazin-5-yl)piperidin-3-yl)-6-(4-methylpiperazin-1-yl)picolinamide] |
| 7.96 | Cc1cccc(C(=O)N[C@@H]2CCCN(c3cc(-c4ccc(S(C)(=O)=O)cc4)n4ncnc(N)c34)C2)c1 [Example 23, (R)-N-(1-(4-amino-7-(4-(methylsulfonyl)phenyl)pyrrolo[2,1-f][1,2,4]triazin-5-yl)piperidin-3-yl)-3-methylbenzamide] |
| 8.70 | COC(=O)N1CC=C(c2cc(N3CCC[C@@H](NC(=O)c4sc(Cl)cc4OC4CCNCC4)C3)c3c(N)ncnn23)C1 [Example 561] |
| 8.52 | COc1cscc1C(=O)N[C@@H]1CCCN(c2cc(-c3ccnc(F)c3)n3ncnc(N)c23)C1 [Example 156, (R)-N-(1-(4-amino-7-(2-fluoropyridin-4-yl)pyrrolo[2,1-f][1,2,4]triazin-5-yl)piperidin-3-yl)-4-methoxythiophene-3-carboxamide] |
| 6.52 | N#Cc1ccc(-c2cc(N3CCC[C@@H](NC(=O)c4sc(C(F)F)cc4C4CCNC4)C3)c3c(N)ncnn23)cn1 (stereo partly drawn) [Example 400, N-((R)-1-(4-amino-7-(6-cyanopyridin-3-yl)pyrrolo[2,1-f][1,2,4]triazin-5-yl)piperidin-3-yl)-5-(difluoromethyl)-3-(pyrrolidin-3-yl)thiophene-2-carboxamide] |
| 7.49 | CN(C)CCOc1c(C(=O)N[C@@H]2CCCN(c3cc(-c4ccnc(C#N)c4)n4ncnc(N)c34)C2)[nH]c2ccccc12 [Example 366, (R)-N-(1-(4-amino-7-(2-cyanopyridin-4-yl)pyrrolo[2,1-f][1,2,4]triazin-5-yl)piperidin-3-yl)-3-(2-(dimethylamino)ethoxy)-1H-indole-2-carboxamide] |
| 6.57 | CC(=O)N1CC=C(c2cc(N3CCC[C@@H](NC(=O)c4cccnc4OCCN(C)C)C3)c3c(N)ncnn23)C1 [Example 723, (R)-N-(1-(7-(1-acetyl-2,5-dihydro-1H-pyrrol-3-yl)-4-aminopyrrolo[2,1-f][1,2,4]triazin-5-yl)piperidin-3-yl)-2-(2-(dimethylamino)ethoxy) nicotinamide] |
| 8.70 | CN(C)CCOc1cc(C2CC2)sc1C(=O)N[C@@H]1CCCN(c2cc(-c3ccc(C#N)nc3)n3ncnc(N)c23)C1 [Example 372, (R)-N-(1-(4-amino-7-(6-cyanopyridin-3-yl)pyrrolo[2,1-f][1,2,4]triazin-5-yl)piperidin-3-yl)-5-cyclopropyl-3-(2-(dimethylamino)ethoxy) thiophene-2-carboxamide] |
| 8.40 | CC(=O)N1CC=C(c2cc(N3CCC[C@@H](NC(=O)c4cccc(C)n4)C3)c3c(N)ncnn23)C1 [Example 448, (R)-N-(1-(7-(1-acetyl-2,5-dihydro-1H-pyrrol-3-yl)-4-aminopyrrolo[2,1-][1,2,4]triazin-5-yl)piperidin-3-yl)-6-methylpicolinamide] |
| 7.55 | CS(=O)(=O)c1ccc(-c2cc(N3CCC[C@@H](NC(=O)c4ccccc4)C3)c3c(N)ncnn23)cc1 [Example 13, (R)—N-(1-(4-amino-7-(4-(methylsulfonyl)phenyl)pyrrolo[2,1-f][1,2,4]triazin-5-yl)piperidin-3-yl)benzamide] |
| 8.10 | CN(C)CCOc1cc(Cl)sc1C(=O)N[C@@H]1CCCN(c2cc(C3=CCN(C(=O)C4CC(F)(F)C4)C3)n3ncnc(N)c23)C1 [Example 179, (R)-N-(1-(4-amino-7-(1-(3,3-difluorocyclobutane-1-carbonyl)-2,5-dihydro-1H-pyrrol-3-yl)pyrrolo[2,1-f][1,2,4]triazin-5-yl)piperidin-3-yl)-5-chloro-3-(2-(dimethylamino)ethoxy) thiophene-2-carboxamide, 2 TFA] |
| 8.22 | CN(C)CCOc1cc(Cl)sc1C(=O)N[C@@H]1CCCN(c2cc(-c3cccc(C=O)c3)n3ncnc(N)c23)C1 [Example 283, (R)-N-(1-(4-amino-7-(3-formylphenyl)pyrrolo[2,1-f][1,2,4]triazin-5-yl)piperidin-3-yl)-5-chloro-3-(2-(dimethylamino)ethoxy) thiophene-2-carboxamide] |
| 7.72 | CC(=O)N1CC=C(c2cc(N3CCC[C@@H](NC(=O)c4sc(C)nc4OC4CCNCC4)C3)c3c(N)ncnn23)C1 [Example 357E, (R)—N-(1-(7-(1-acetyl-2,5-dihydro-1H-pyrrol-3-yl)-4-aminopyrrolo[2,1-f][1,2,4]triazin-5-yl)piperidin-3-yl)-2-methyl-4-(piperidin-4-yloxy)thiazole-5-carboxamide] |
| 7.85 | CC(O)c1cccc(-c2cc(N3CCC[C@@H](NC(=O)c4ccc(Cl)s4)C3)c3c(N)ncnn23)c1 (stereo partly drawn) [Example 240, N-[(3R)-1-{4-amino-7-[3-(1-hydroxyethyl)phenyl]pyrrolo[2,1-f][1,2,4]triazin-5-yl}piperidin-3-yl]-5-chlorothiophene-2-carboxamide] |
